Measured values reported in the Kinase Knowledgebase extract (Sharma et al. 2016).
Converted amounts (≈) assume the structure as drawn. “And” between values parts separate entries of the source, which are not always exact repeats. Equal values may be shown once.

Tests used:
CDK2 = CDK2 (UniProt P24941); test: Enzyme Assay
CDK2 (human) = CDK2 (human) (UniProt P24941); test: Cell-Based Assay
CDK2 (rat) = test: Cell-Based Assay; conditions: rasmc
CDK2 (murine) = test: Animal Model; conditions: l1210
CDK2 (mouse) = test: Cell-Based Assay; conditions: p388

SMILES | IC50 (CDK2) | further results
COc1ccc(CNc2nc(Cl)nc3c2ncn3C)cc1 | 6 µg/mL (≈ 19.8 µM) | 
Cn1cnc2c(NCCO)nc(NCCO)nc21 | > 60 µg/mL | 
COc1ccc(CNc2nc(NCC(O)CN)nc3c2ncn3C(C)C)cc1 (stereo unspecified) | 0.6 µg/mL (≈ 1.56 µM) | 
COc1ccc(CNc2nc(Cl)nc3c2ncn3CCC(=O)c2cccc3ccccc23)cc1 | > 60 µg/mL | 
COc1ccc(CNc2nc(N3CC=CC3)nc3c2ncn3C(C)C)cc1 | 1 µg/mL (≈ 2.74 µM) | 
COc1ccc(CNc2nc(N(CCO)CCO)nc3c2ncn3C(C)C)cc1 |  | IC50 (CDK2 (rat)): 0.5 µg/mL (≈ 1.25 µM); MST (CDK2 (murine)): 13 d (3×) and 11 d and 12 d
COc1ccc(CNc2nc(Cl)nc3c2ncn3C(F)(F)F)cc1 | > 60 µg/mL | 
CC(C)n1cnc2c(NCc3ccc(F)cc3)nc(N(CCO)CCO)nc21 | 0.15 µg/mL (≈ 0.386 µM) | 
COc1ccc(CNc2nc(N(CCO)CCO)nc3c2ncn3C(F)(C(F)(F)F)C(F)(F)F)cc1 | 40 µg/mL (≈ 76 µM) | 
COc1ccc(CNc2nc(Cl)nc3c2ncn3Cc2ccccc2)cc1 | > 60 µg/mL | 
OCCNc1nc(NCc2ccccc2)nc2[nH]cnc12 | > 60 µg/mL | 
CC(C)n1cnc2c(NCc3ccc(F)cc3)nc(NC[C@H](C)O)nc21 | 0.22 µg/mL (≈ 0.614 µM) | 
CC(C)n1cnc2c(NCc3ccc(Cl)cc3)nc(NCCN)nc21 | 0.35 µg/mL (≈ 0.973 µM) | IC50 (CDK2 (human); mrc 5): 1 µg/mL (≈ 2.78 µM)
COc1ccc(CNc2nc(NCCO)nc3c2ncn3C)cc1 | 4 µg/mL (≈ 12.2 µM) | 
COc1ccc(CNc2nc(Cl)nc3c2ncn3CC(C)C)cc1 | 60 µg/mL (≈ 173 µM) | 
COc1ccc(CNc2nc(N(CCO)CCO)nc3c2ncn3C)cc1 | 4 µg/mL (≈ 10.7 µM) | 
CC(C)n1cnc2c(NCc3ccc(Cl)cc3)nc(N(CCO)CCO)nc21 | 0.12 µg/mL (≈ 0.296 µM) | IC50 (CDK2 (human); mrc 5): 3 µg/mL (≈ 7.41 µM)
CC(C)[C@H](CO)Nc1nc(NCc2ccc(F)cc2)c2ncn(C(C)C)c2n1 | 0.06 µg/mL (≈ 0.155 µM) | 
CC(C)n1cnc2c(NCc3ccc4c(c3)OCO4)nc(N(CCO)CCO)nc21 | 0.8 µg/mL (≈ 1.93 µM) | 
CC(C)n1cnc2c(Nc3ccc(-c4ccccc4)cc3)nc(N(CCO)CCO)nc21 | 0.6 µg/mL (≈ 1.39 µM) | IC50 (CDK2 (rat)): 1 µg/mL (≈ 2.31 µM); IC50 (CDK2 (human); caco-2): 0.5 µg/mL (≈ 1.16 µM); IC50 (CDK2 (human); mcf-7): 4 µg/mL (≈ 9.25 µM); IC50 (CDK2 (human); ovcar): 7 µg/mL (≈ 16.2 µM); IC50 (CDK2 (human); panc1): 4 µg/mL (≈ 9.25 µM)

SMILES | IC50 (CDK2) | further results
CC(N)CNc1nc(NCc2ccc(Cl)cc2)c2ncn(C(C)C)c2n1 (stereo unspecified) | 0.05 µg/mL (≈ 0.134 µM) | IC50 (CDK2 (human); mrc 5): 1 µg/mL (≈ 2.67 µM)
CC(C)n1cnc2c(Nc3cccc(-c4ccc(C#N)cc4)c3)nc(N(CCO)CCO)nc21 | 0.5 µg/mL (≈ 1.09 µM) | 
Cn1cnc2c(OCc3ccc(Cl)cc3)nc(Cl)nc21 | 60 µg/mL (≈ 194 µM) | 
COc1ccc(CNc2nc(N(CCO)CCO)nc3c2ncn3CCO)cc1 | 0.5 µg/mL (≈ 1.24 µM) | 
COc1ccc(CNc2nc(N3CCOCC3)nc3c2ncn3C(C)C)cc1 |  | IC50 (CDK2 (human); ovcar): 4 µg/mL (≈ 10.5 µM); IC50 (CDK2 (human); panc1): 5.5 µg/mL (≈ 14.4 µM)
FC(F)(F)n1cnc2c(OCc3ccc(Cl)cc3)nc(Cl)nc21 | > 60 µg/mL | 
CC(C)n1cnc2c(NCc3ccc(Cl)cc3)nc(N(CCN)CCO)nc21 | 0.07 µg/mL (≈ 0.173 µM) | IC50 (CDK2 (human); mrc 5): 1 µg/mL (≈ 2.48 µM)
CSc1cccc(Nc2nc(N(CCO)CCO)nc3c2ncn3C(C)C)c1 | 0.1 µg/mL (≈ 0.248 µM) | 
CC(C)n1cnc2c(-c3cccc(OCc4ccccc4)c3)nc(N(CCO)CCO)nc21.CC(C)n1cnc2c(-c3cccc(Oc4ccccc4)c3)nc(N(CCO)CCO)nc21 |  | IC50 (CDK2 (mouse)): 1.5 µg/mL; IC50 (CDK2 (human); mcf-7): 2 µg/mL; IC50 (CDK2 (human); ovcar): 2 µg/mL; IC50 (CDK2 (human); panc1): 2.5 µg/mL
CC(C)[C@@H](CO)Nc1nc(NCc2ccc(F)cc2)c2ncn(C(C)C)c2n1 | 0.19 µg/mL (≈ 0.492 µM) | 
COc1ccc(CNc2nc(Cl)nc3c2ncn3C(C)C)cc1 | 4 µg/mL (≈ 12.1 µM) | 
CC(C)n1cnc2c(NCc3ccc(F)cc3)nc(NC[C@@H](C)O)nc21 | 0.23 µg/mL (≈ 0.642 µM) | 
CC(C)n1cnc2c(NCc3ccc(-c4ccc(C(F)(F)F)cc4)cc3)nc(N(CCO)CCO)nc21 | 0.6 µg/mL (≈ 1.17 µM) | 
CC(C)n1cnc2c(Nc3ccccc3)nc(Cl)nc21 | 1 µg/mL (≈ 3.48 µM) | 
Clc1ccc(COc2nc(Cl)nc3[nH]cnc23)cc1 | 60 µg/mL (≈ 203 µM) | 
CC(C)n1cnc2c(NCc3ccc(Cl)cc3)nc(NCC(O)c3ccccc3)nc21 (stereo unspecified) | 0.08 µg/mL (≈ 0.183 µM) | 
FC(F)(F)n1cnc2c(NCc3ccc(Cl)cc3)nc(Cl)nc21 | 1 µg/mL (≈ 2.76 µM) | 
CSc1ccc(Nc2nc(N(CCO)CCO)nc3c2ncn3C(C)C)cc1 | 0.07 µg/mL (≈ 0.174 µM) | 
CC(C)Cn1cnc2c(NCc3ccc(C(F)(F)F)cc3)nc(N(CCO)CCO)nc21 | 59 µg/mL (≈ 130 µM) | 

Now from value to compound, other results behind:

IC50 (CDK2) | SMILES | further results
4 µg/mL (≈ 11.2 µM) | COc1ccc(CNc2nc(NCCO)nc3c2ncn3C(C)C)cc1 | 
0.16 µg/mL (≈ 0.358 µM) | CC(C)n1cnc2c(NCc3ccc(-c4ccccn4)cc3)nc(N(CCO)CCO)nc21 | 
0.6 µg/mL (≈ 1.34 µM) | CC(C)n1cnc2c(NCc3ccc(-c4ccccc4)cc3)nc(N(CCO)CCO)nc21 | IC50 (CDK2 (human); caco-2): 3.5 µg/mL (≈ 7.84 µM); IC50 (CDK2 (human); mcf-7): 1 µg/mL (≈ 2.24 µM); IC50 (CDK2 (human); ovcar): 2 µg/mL (≈ 4.48 µM); IC50 (CDK2 (human); panc1): 1.3 µg/mL (≈ 2.91 µM)
0.38 µg/mL (≈ 1.01 µM) | CC(C)n1cnc2c(NCc3ccc(Cl)cc3)nc(NC[C@H](C)O)nc21 | 
60 µg/mL (≈ 207 µM) | COc1ccc(CNc2nc(Cl)nc3[nH]cnc23)cc1 | 
0.6 µg/mL (≈ 1.39 µM) | CC(C)n1cnc2c(NCc3ccc(-c4ccccc4)cc3)nc(NCC(O)CO)nc21 (stereo unspecified) | 
> 60 µg/mL | COC(=O)c1ccc(Cn2cnc3c(NCc4ccc(OC)cc4)nc(Cl)nc32)cc1 | 
37 µg/mL (≈ 85.5 µM) | CC(=O)C(C)n1cnc2c(NCc3ccc(Cl)cc3)nc(N(CCO)CCO)nc21 (stereo unspecified) | 
1 µg/mL (≈ 2.24 µM) | COc1ccc(CNc2nc(N(CCO)Cc3ccccc3)nc3c2ncn3C(C)C)cc1 | 
0.56 µg/mL (≈ 1.28 µM) | CC(C)n1cnc2c(NCc3ccc(C(F)(F)F)cc3)nc(N(CCO)CCO)nc21 | 
0.63 µg/mL (≈ 1.64 µM) | CC(C)n1cnc2c(NCc3ccc(F)cc3)nc(NC[C@@H]3CCCO3)nc21 | 
11 µg/mL (≈ 26.4 µM) | CC(=O)C(C)n1cnc2c(NCc3ccc(F)cc3)nc(N(CCO)CCO)nc21 (stereo unspecified) | 
0.19 µg/mL (≈ 0.472 µM) | CC(C)[C@H](CO)Nc1nc(NCc2ccc(Cl)cc2)c2ncn(C(C)C)c2n1 | 
0.48 µg/mL (≈ 1.34 µM) | CC(N)CNc1nc(NCc2ccc(F)cc2)c2ncn(C(C)C)c2n1 (stereo unspecified) | 
1 µg/mL (≈ 2.13 µM) | COc1ccc(CNc2nc(N(Cc3cccnc3)CC(C)C#N)nc3c2ncn3C(C)C)cc1 (stereo unspecified) | 
1 µg/mL (≈ 3.25 µM) | CC(C)n1cnc2c(NCC3CCCCC3)nc(Cl)nc21 | 
31 µg/mL (≈ 77.1 µM) | CC(C)n1cnc2c(NCc3ccc(Cl)cc3)nc(NCCCCCN)nc21 | 
0.43 µg/mL (≈ 1.15 µM) | CC(C)n1cnc2c(NCc3ccc(Cl)cc3)nc(NC[C@@H](C)O)nc21 | 
> 60 µg/mL | COc1ccc(CNc2nc(Cl)nc3c2ncn3CCCC#N)cc1 | 
0.26 µg/mL (≈ 0.694 µM) | CC(C)n1cnc2c(NCc3ccc(Cl)cc3)nc(N[C@@H](C)CO)nc21 | 

IC50 (CDK2) | SMILES | further results
0.18 µg/mL (≈ 0.502 µM) | CC(CO)Nc1nc(NCc2ccc(F)cc2)c2ncn(C(C)C)c2n1 (stereo unspecified) | 
> 60 µg/mL | COc1ccc(CNc2nc(Cl)nc3c2ncn3CCCCl)cc1 | 
0.5 µg/mL (≈ 1.1 µM) | CC(C)n1cnc2c(NCc3ccc(-c4cccs4)cc3)nc(N(CCO)CCO)nc21 | 
0.6 µg/mL (≈ 1.8 µM) | CSc1ccc(Nc2nc(Cl)nc3c2ncn3C(C)C)cc1 | 
2.02 µg/mL (≈ 5 µM) | CC(C)n1cnc2c(NCc3ccc(Cl)cc3)nc(NCCNCCO)nc21 | 
1.07 µg/mL (≈ 2.38 µM) | CC(C)n1cnc2c(NCc3ccc(Cl)cc3)nc(NC[C@@H](N)Cc3ccccc3)nc21 | 
1.07 µg/mL (≈ 2.31 µM) | CC(C)n1cnc2c(NCc3ccc(Cl)cc3)nc(N[C@@H](Cc3ccccc3)C(N)=O)nc21 | 
> 45 µg/mL | COc1ccc(CNc2nc(Cl)nc3c2ncn3C(F)(C(F)(F)F)C(F)(F)F)cc1 | 
0.35 µg/mL (≈ 0.934 µM) | CC(C)n1cnc2c(NCc3ccc(Cl)cc3)nc(N[C@H](C)CO)nc21 | 
9 µg/mL (≈ 22.2 µM) | CC(C)n1cnc2c(NCc3ccc(S(N)(=O)=O)cc3)nc(NCCN)nc21 | 
0.43 µg/mL (≈ 0.96 µM) | CC(C)n1cnc2c(NCc3ccc(Cl)cc3)nc(N(CCO)CCNCCO)nc21 | 
1 µg/mL (≈ 2.67 µM) | CC(C)n1cnc2c(NCc3ccc(Cl)cc3)nc(NCCCN)nc21 | 
0.8 µg/mL (≈ 1.87 µM) | COc1ccc(CNc2nc(N(CC(C)O)CC(C)O)nc3c2ncn3C(C)C)cc1 (stereo unspecified) | 
0.6 µg/mL (≈ 1.3 µM) | Cc1ccc(-c2ccc(CNc3nc(N(CCO)CCO)nc4c3ncn4C(C)C)cc2)cc1 | 
1 µg/mL (≈ 2.42 µM) | COc1ccc(CNc2nc(NC(C)(CO)C(C)C)nc3c2ncn3C(C)C)cc1 (stereo unspecified) | 
0.9 µg/mL (≈ 2.71 µM) | COc1cccc(CNc2nc(Cl)nc3c2ncn3C(C)C)c1 | 
1 µg/mL (≈ 2.52 µM) | COc1ccc(CNc2nc(N3CCCC(O)C3)nc3c2ncn3C(C)C)cc1 (stereo unspecified) | 
0.58 µg/mL (≈ 1.51 µM) | CC(C)n1cnc2c(NCc3ccc(F)cc3)nc(NC[C@H]3CCCO3)nc21 | 
0.5 µg/mL (≈ 1.25 µM) | COc1cccc(CNc2nc(N(CCO)CCO)nc3c2ncn3C(C)C)c1 | 
